The test system of assay [1] is Mcl-1, PARP. The assay can be described thus: Mcl-1 level and PARP cleavage in treated tumor cells. The format is cell-based.
Assay [2] relates to murine norovirus, Tulane virus, Listeria monocytogenes, Toxoplasma gondii, Norwalk virus. The assay can be described thus: inhibition of category A and B pathogens.
The target of assay [3] is T1, Usp5 (Homo sapiens, UniProt P45974).
T1 construct: endogenous in cells; host or cells: A375 and A375R melanoma cells (also SK-Mel28)
T1 sequence (P45974 1-858): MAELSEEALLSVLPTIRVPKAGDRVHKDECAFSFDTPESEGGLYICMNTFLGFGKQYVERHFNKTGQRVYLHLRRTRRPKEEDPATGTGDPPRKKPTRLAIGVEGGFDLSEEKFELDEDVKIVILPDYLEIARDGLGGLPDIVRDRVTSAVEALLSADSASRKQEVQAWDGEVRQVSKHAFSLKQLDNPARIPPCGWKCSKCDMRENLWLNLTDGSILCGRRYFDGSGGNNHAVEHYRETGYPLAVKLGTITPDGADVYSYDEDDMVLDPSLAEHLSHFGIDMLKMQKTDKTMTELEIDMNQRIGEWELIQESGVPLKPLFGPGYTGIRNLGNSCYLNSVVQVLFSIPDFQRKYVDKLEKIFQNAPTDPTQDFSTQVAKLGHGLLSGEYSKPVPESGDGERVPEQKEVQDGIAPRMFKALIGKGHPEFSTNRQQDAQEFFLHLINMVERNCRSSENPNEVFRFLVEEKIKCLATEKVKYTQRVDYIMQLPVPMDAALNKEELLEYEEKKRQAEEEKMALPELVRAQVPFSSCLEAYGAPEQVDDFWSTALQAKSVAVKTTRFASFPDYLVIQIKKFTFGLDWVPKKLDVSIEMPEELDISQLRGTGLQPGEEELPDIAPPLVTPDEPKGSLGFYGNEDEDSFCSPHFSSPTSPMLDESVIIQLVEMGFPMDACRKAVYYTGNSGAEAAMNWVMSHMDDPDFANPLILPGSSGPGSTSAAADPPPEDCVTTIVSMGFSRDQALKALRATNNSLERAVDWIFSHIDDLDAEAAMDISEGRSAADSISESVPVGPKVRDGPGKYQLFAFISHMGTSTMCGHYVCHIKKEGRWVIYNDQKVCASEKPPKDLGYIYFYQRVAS
Briefly: DUB activity (HA-Ub labelling) in treated cells. The format is cell-based. As for the experimental part:
DUB activity was assessed by HA blotting and confirmed by monitoring a DUBs mobility shift due to its covalent modification with HA-Ub. DUB inhibition was detected in vemurafenib-responsive (SK-Mel28 and A375) cells and we noted a consistent change in a DUB (100 kDa) identified as Usp5 by LC/MS/MS of the excised protein band (data not shown) and direct immunoblotting. […] DUB activity was also compared in control and BRAF knockdown (KD) cells. BRAF shRNA reduced pERK levels and Usp5 activity.
(§1) Similar results were obtained in A375R Usp5 KD cells treated with a MEK inhibitor.

Assay [4] deals with p53, pStat3, pERK, NOXA, PARP, Bid. The assay can be described thus: signalling and apoptosis markers in A375 cells. Type of assay: cell-based.
Text: as §1

The mark [5] stands for this setting: vemurafenib sensitive and resistant A375 cells.

For the compound `CCCC(NC(=O)/C(C#N)=C/c1nc(Cl)ccc1Cl)c1ccc(OCCN2CCOCC2)cc1` (stereo not shown) [Compound G9, (E)-2-Cyano-3-(3,6-dichloropyridin-2-yl)-N-(1-(4-(2-morpholinoethoxy)phenyl)butyl)acrylamide], the “caspase activity (PARP cleavage)” value in assay [1] (MM1.ST cells, 5 μM) is reported as “activation of caspase activity”. For the same compound, the Mcl-1 level result in assay [1] (MM1.ST or PCL cells, 5 μM) is on record as “reduction in Mcl-1”. Moreover, the “level of Mcl-1” value in assay [1] (Z138 lymphoma cells, 1.25, 2.5 and 5 μM, 4 hours) was “reduce the level of a downstream target of Usp9x”. Also, the “inhibition of category A and B pathogens and related family members” value in assay [2] is given as “potent inhibitor”. In addition, the Usp5 inhibition entry in assay [3] (myeloma (MM1.S) cells, various concentrations, FIG. 10) is “inhibits Usp9x and Usp5”. Also, the Usp5 activity result in assay [3] (setting [5]) was “reduced Usp5 (and Usp9x) activity in both cell types”. Moreover, in assay [4] (A375R cells), the “pERK, pStat3 and NOXA levels” value was “reduced pERK, pStat3 and elevated NOXA levels”. In assay [4] (A375R cells, combined with vemurafenib or 5FU), the “PARP and Bid cleavage” value was “induced PARP and Bid cleavage”. Further, in assay [4] (setting [5]), the p53 levels entry is “increased p53 levels” and the pStat3 inhibitory activity entry is reported as “retained pStat3 inhibitory activity”.

The values are drawn from US9868736B2, “Deubiquitinase inhibitors and methods for use of the same” (THE REGENTS OF THE UNIVERSITY OF MICHIGAN, priority 2013, dated 2018).
